Measured values as given in US20230090255A1, “MAGL INHIBITOR, PREPARATION METHOD THEREFOR AND USE THEREOF” (LUNAN PHARMACEUTICAL GROUP CORPORATION, priority 2019, published 2023).
Marks after values point to notes of the source that are not given here.

How the values were obtained:
[1] = system: mice with inflammatory pain; test: Pain threshold of mice with inflammatory pain (complete Freund's adjuvant); format: in vivo, SD mice; settings: for Pain threshold: complete Freund's adjuvant paw model; for pain threshold of the mice with inflammatory pain, in words: compared with the model group
Description: […] (180±20) g were injected with a complete Freund’s adjuvant (50 µL/piece) at the right rear plantar of mice, and mice in the control group were injected with the corresponding volume of 0.5% sodium carboxymethylcellulose to establish a paw edema inflammatory pain model. After modeling, the mice were administered for 7 d continuously, and administered intragastrically once per day. Pain thresholds (s) of the mice were respectively determined on the 1st, 3rd and 7th day before administration and after modeling at different periods of time.
Grouping and administration were the same as those of Example 40.

[2] = system: irritable bowel syndrome rats; test: Irritable bowel syndrome rats induced by early maternal separation; format: in vivo, SD rats; design: AWR scoring: scale not given here; settings: for Colon 5-HT / Serum 5-HT / AWR scoring: IBS rats; for 5-HT level in colon and serum, in words / AWR scoring, in words: compared with the model group
Description: The newborn SD male rats were separated from the mother rat in lactation period for 3 h every day on the 2nd to the 21st day after the birth of the newborn SD rats, namely, the mother rat in lactation period was taken out of the cage at 8:30 a.m., and then the newborn rats were removed from the initial cage and put to another separate cage, then the cage was transferred to an adjacent room, then the newborn rats were returned to the initial cage 3 h later, namely, at 11:30 such that the newborn rats and the mother rat got together; the newborn rats were weaned on the 22nd day after birth and separated from the initial cage on the 30th day, grouped on the 60th day, and administered, 20 d in total.
Intragastric administration was performed within the administration period once a day with continuous administration for 20 d.
Test indicators: abdominal withdrawal reflex (AWR); test method: rats were fasted 18 h before the experiment and drank water freely, and narcotized with diethyl ether; then an air sac coated with paraffin oil was inserted into the rats’ colorectum for 4.0 cm, and a catheter outside the anus was fixed at the root of the rat tail with an adhesive tape, and connected with an injection syringe and a sphygmomanometer via three links. The rats were put to an organic glass inspection box (20 cmx12 cm×9 cm), after the rats were awake and fully adapted to the environment for 30 min, the experiment was started. 20, 40 and 60 mm Hg of pressure were respectively applied on the rats, and continuous expansion was performed for 20 s each time with a stimulus interval of 4 min; each pressure was performed for 3 times repeatedly for AWR scoring.
At the end of the experiment, the animals were dissected and weighed, and narcotized to take blood, then the content of 5-HT in serum was determined by high performance liquid chromatography. […] slightly with 0.5% sodium carboxymethylcellulose, and then sucked dry with a filter paper, and placed into a cryogenic tube, and preserved at -20° C. for further use, […] chromatography.

[3] = target: T1, recombinant human protein MAGL (Homo sapiens, UniProt Q99685); test: MAGL enzyme analysis (Cayman MAGL inhibitor screening kit); format: biochemical; settings: 4-nitrophenylacetic acid substrate, absorbance 410 nm, read-out: MAGLXIC50
T1 construct: purchased Cayman
T1 sequence (Q99685 1-303): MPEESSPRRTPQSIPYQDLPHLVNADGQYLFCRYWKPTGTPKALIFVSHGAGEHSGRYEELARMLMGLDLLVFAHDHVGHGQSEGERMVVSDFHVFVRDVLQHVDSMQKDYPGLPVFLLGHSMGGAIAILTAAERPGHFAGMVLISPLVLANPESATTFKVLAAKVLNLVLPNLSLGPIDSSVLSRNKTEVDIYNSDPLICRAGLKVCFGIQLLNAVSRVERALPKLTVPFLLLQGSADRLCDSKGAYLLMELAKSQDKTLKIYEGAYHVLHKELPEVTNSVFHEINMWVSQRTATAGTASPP
Description: 150 µL 1Xassay buffer, 10 µL recombinant human protein MAGL and 10 µL different concentrations of MAGL inhibitors (six points within 1 nM to 1000 nM) were added to per well of a 96-well plate. JZL195 (a positive control inhibitor) served as a positive control well, after incubation for 5 min at room temperature, per well was added with 10 µL MAGL substrate, and […] were vibrated for 10 s and placed for 10 min at room temperature, then an absorbance was detected at 410 nm. […] Graphad Prism 5.0 was taken to calculate IC50 curves fitting each inhibitor.

[4] = high dose 30 mg/kg ig once per day, 0 d
[5] = high dose 30 mg/kg ig once per day, 1 d
[6] = high dose 30 mg/kg ig once per day, 3 d
[7] = high dose 30 mg/kg ig once per day, 7 d
[8] = low dose 7.5 mg/kg ig once per day, 0 d
[9] = low dose 7.5 mg/kg ig once per day, 1 d
[10] = low dose 7.5 mg/kg ig once per day, 3 d
[11] = low dose 7.5 mg/kg ig once per day, 7 d
[12] = middle dose 15 mg/kg ig once per day, 0 d
[13] = middle dose 15 mg/kg ig once per day, 1 d
[14] = middle dose 15 mg/kg ig once per day, 3 d
[15] = middle dose 15 mg/kg ig once per day, 7 d
[16] = high dose 30 mg/kg ig 20 d, 20 mm Hg
[17] = high dose 30 mg/kg ig 20 d, 40 mm Hg
[18] = high dose 30 mg/kg ig 20 d, 60 mm Hg
[19] = low dose 7.5 mg/kg ig 20 d, 20 mm Hg
[20] = low dose 7.5 mg/kg ig 20 d, 40 mm Hg
[21] = low dose 7.5 mg/kg ig 20 d, 60 mm Hg
[22] = middle dose 15 mg/kg ig 20 d, 20 mm Hg
[23] = middle dose 15 mg/kg ig 20 d, 40 mm Hg
[24] = middle dose 15 mg/kg ig 20 d, 60 mm Hg

O=C(Nc1ccc(Cl)cc1)C1CCN(C(=O)c2ccc(O)cc2)CC1 [MAGLZ-II-10]
Pain threshold [1, 4]: 12.93 ± 2.26 s | Pain threshold [1, 5]: 5.67 ± 0.93 s | Pain threshold [1, 6]: 7.95 ± 0.66 s | Pain threshold [1, 7]: 8.93 ± 0.61 s | Pain threshold [1, 8]: 12.71 ± 2.47 s | Pain threshold [1, 9]: 5.59 ± 0.89 s | Pain threshold [1, 10]: 7.15 ± 0.59 s | Pain threshold [1, 11]: 8.33 ± 0.57 s | Pain threshold [1, 12]: 12.77 ± 2.48 s | Pain threshold [1, 13]: 5.62 ± 0.84 s | Pain threshold [1, 14]: 7.18 ± 0.55 s | Pain threshold [1, 15]: 8.36 ± 0.59 s | Colon 5-HT ([2]; high dose 30 mg/kg ig 20 d): 18.66±2.38^∗ µg/mg | Serum 5-HT ([2]; high dose 30 mg/kg ig 20 d): 33.09±2.31^∗ µg/ml | AWR scoring [2, 16]: 2.89±0.46 | AWR scoring [2, 17]: 3.21±0.35^∗ | AWR scoring [2, 18]: 3.65±0.17^∗ | Colon 5-HT ([2]; low dose 7.5 mg/kg ig 20 d): 21.44 ± 2.72 µg/mg | Serum 5-HT ([2]; low dose 7.5 mg/kg ig 20 d): 36.32 ± 3.14 µg/mL | AWR scoring [2, 19]: 2.87±0.39 | AWR scoring [2, 20]: 3.43±0.30 | AWR scoring [2, 21]: 3.79±0.20 | Colon 5-HT ([2]; middle dose 15 mg/kg ig 20 d): 20.97 ± 2.24 µg/mg | Serum 5-HT ([2]; middle dose 15 mg/kg ig 20 d): 38.65 ± 2.68 µg/mL | AWR scoring [2, 22]: 2.83±0.47 | AWR scoring [2, 23]: 3.56±0.22 | AWR scoring [2, 24]: 3.80±0.17

O=C(Nc1cccc(Cl)c1)C1CCN(C(=O)c2cc(O)ccc2F)CC1 [MAGLZ-II-11 (a)]
pain threshold of the mice with inflammatory pain, in words [1]: significantly extend | Pain threshold [1, 4]: 12.97 ± 2.32 s | Pain threshold [1, 5]: 7.83±1.01^∗∗∗ s | Pain threshold [1, 6]: 9.55±1.58^∗∗∗ s | Pain threshold [1, 7]: 11.00±161.00^∗∗∗ s | Pain threshold [1, 8]: 12.96 ± 2.44 s | Pain threshold [1, 9]: 7.38±1.19^∗∗∗ s | Pain threshold [1, 10]: 8.87±0.74^∗∗∗ s | Pain threshold [1, 11]: 9.91±1.05^∗∗∗ s | Pain threshold [1, 12]: 13.03 ± 2.35 s | Pain threshold [1, 13]: 7.58±0.84^∗∗∗ s | Pain threshold [1, 14]: 9.30±0.75^∗∗∗ s | Pain threshold [1, 15]: 10.66±1.30^∗∗∗ s | IC50 [3]: 2.15 µM | Colon 5-HT ([2]; high dose 30 mg/kg ig 20 d): 12.65±3.36^∗∗∗ µg/mg | Serum 5-HT ([2]; high dose 30 mg/kg ig 20 d): 24.05±6.17^∗∗∗ µg/ml | AWR scoring [2, 16]: 1.23±0.50^∗∗ ∗ | AWR scoring [2, 17]: 2.13±0.48^∗∗∗ | AWR scoring [2, 18]: 2.87±0.46^∗∗∗ | Colon 5-HT ([2]; low dose 7.5 mg/kg ig 20 d): 16.33±2.78^∗∗ µg/mg | Serum 5-HT ([2]; low dose 7.5 mg/kg ig 20 d): 31.76±5.42^∗∗ µg/ml | AWR scoring [2, 19]: 2.12±0.36^∗∗ ∗ | AWR scoring [2, 20]: 3.02±0.53^∗ | AWR scoring [2, 21]: 3.58±0.26^∗∗ | Colon 5-HT ([2]; middle dose 15 mg/kg ig 20 d): 14.79±2.73^∗∗∗ µg/mg | Serum 5-HT ([2]; middle dose 15 mg/kg ig 20 d): 29.89±5.34^∗∗∗ µg/ml | AWR scoring [2, 22]: 1.51±0.43^∗∗ ∗ | AWR scoring [2, 23]: 2.52±0.38^∗∗∗ | AWR scoring [2, 24]: 3.27±0.48^∗∗∗ | 5-HT level in colon and serum, in words [2]: significantly decrease | AWR scoring, in words [2]: significantly decrease

O=C(Nc1cccc(Cl)c1)C1CCN(C(=O)c2cc3cc(F)ccc3[nH]2)CC1 [MAGLZ-II-18 (a)]
pain threshold of the mice with inflammatory pain, in words [1]: significantly extend | Pain threshold [1, 4]: 12.85 ± 2.26 s | Pain threshold [1, 5]: 7.49±0.79^∗∗∗ s | Pain threshold [1, 6]: 9.35±1.2^∗∗∗ s | Pain threshold [1, 7]: 10.37±1.59^∗∗∗ s | Pain threshold [1, 8]: 12.73 ± 2.43 s | Pain threshold [1, 9]: 6.97±0.87^∗∗ s | Pain threshold [1, 10]: 8.44±1.03^∗∗∗ s | Pain threshold [1, 11]: 9.56±0.92^∗∗ s | Pain threshold [1, 12]: 12.86 ± 2.25 s | Pain threshold [1, 13]: 7.26±0.70^∗∗∗ s | Pain threshold [1, 14]: 9.01±0.68^∗∗∗ s | Pain threshold [1, 15]: 10.37±1.49^∗∗∗ s | IC50 [3]: 2.15 µM | Colon 5-HT ([2]; high dose 30 mg/kg ig 20 d): 13.90 ± 1.13 µg/mg | Serum 5-HT ([2]; high dose 30 mg/kg ig 20 d): 29.44 ± 4.37 µg/mL | AWR scoring [2, 16]: 1.96±0.46** * | AWR scoring [2, 17]: 2.60±0.58 | AWR scoring [2, 18]: 3.00±0.54 | Colon 5-HT ([2]; low dose 7.5 mg/kg ig 20 d): 16.43 ± 2.15 µg/mg | Serum 5-HT ([2]; low dose 7.5 mg/kg ig 20 d): 32.51 ± 5.01 µg/mL | AWR scoring [2, 19]: 2.58±0.26 | AWR scoring [2, 20]: 3.06±0.38 | AWR scoring [2, 21]: 3.50±0.29 | Colon 5-HT ([2]; middle dose 15 mg/kg ig 20 d): 14.64 ± 2.17 µg/mg | Serum 5-HT ([2]; middle dose 15 mg/kg ig 20 d): 30.20 ± 5.59 µg/mL | AWR scoring [2, 22]: 2.35±0.40 | AWR scoring [2, 23]: 3.02±0.51 | AWR scoring [2, 24]: 3.39±0.34 | 5-HT level in colon and serum, in words [2]: significantly decrease | AWR scoring, in words [2]: significantly decrease

Cn1c(C(=O)N2CCC(C(=O)Nc3cccc(Cl)c3)CC2)cc2ccccc21 [MAGLZ-II-18 (c)]
pain threshold of the mice with inflammatory pain, in words [1]: significantly extend | Pain threshold [1, 4]: 12.85±2.09^∗ s | Pain threshold [1, 5]: 6.44±0.92^∗ s | Pain threshold [1, 6]: 8.17±1.14^∗ s | Pain threshold [1, 7]: 9.05±0.84^∗ s | Pain threshold [1, 8]: 12.75±2.46^∗ s | Pain threshold [1, 9]: 6.36±0.89^∗ s | Pain threshold [1, 10]: 7.98±1.21^∗ s | Pain threshold [1, 11]: 8.95±0.67^∗ s | Pain threshold [1, 12]: 12.86±2.07^∗ s | Pain threshold [1, 13]: 6.41±0.91^∗ s | Pain threshold [1, 14]: 8.10±1.30^∗ s | Pain threshold [1, 15]: 8.99±0.92^∗ s | IC50 [3]: 0.0026 µM | Colon 5-HT ([2]; high dose 30 mg/kg ig 20 d): 14.34±2.40^∗∗∗ µg/mg | Serum 5-HT ([2]; high dose 30 mg/kg ig 20 d): 29.03±5.29^∗∗∗ µg/ml | AWR scoring [2, 16]: 1.38±0.51^∗∗ ∗ | AWR scoring [2, 17]: 2.20±0.57^∗∗∗ | AWR scoring [2, 18]: 2.96±0.70^∗∗∗ | Colon 5-HT ([2]; low dose 7.5 mg/kg ig 20 d): 16.84 ± 2.87 µg/mg | Serum 5-HT ([2]; low dose 7.5 mg/kg ig 20 d): 34.2 ± 5.37 µg/mL | AWR scoring [2, 19]: 2.28±0.58 | AWR scoring [2, 20]: 3.20±0.43 | AWR scoring [2, 21]: 3.61±0.24 | Colon 5-HT ([2]; middle dose 15 mg/kg ig 20 d): 14.99±2.90^∗∗ µg/mg | Serum 5-HT ([2]; middle dose 15 mg/kg ig 20 d): 31.88±4.40^∗∗ µg/ml | AWR scoring [2, 22]: 1.79±0.23^∗∗ ∗ | AWR scoring [2, 23]: 2.87±0.65^∗∗ | AWR scoring [2, 24]: 3.27±0.51^∗∗ | 5-HT level in colon and serum, in words [2]: significantly decrease | AWR scoring, in words [2]: significantly decrease
